In article PMC9170106, “Pre-clinical evaluation of LASSBio-1491: From in vitro pharmacokinetic study to in vivo leishmanicidal activity” (PLoS ONE, 2022):

Tests used:
[1] = PAMPA-BBB permeability; conditions: for Classification: PAMPA-BBB
Excerpt: (§1) The parallel artificial membrane permeability assay uses 96-well plate in a “sandwich” type system, where one plate overlaps the other (PAMPA). […] The lipid mixture that impregnates the PVDF filter has a different constitution for the permeability tests for the blood-brain barrier (Brain lipid from pig extract in dodecane) and gastro-intestinal tract (L-α soy phosphatidylcholine in dodecane). In the PAMPA BBB and TGI assays, the optical density values obtained in the reading at each selected wavelength, for each of the compounds were analyzed in comparison with the values of several controls. In the case of the BBB, these values were used to elaborate an equation and determine the permeability coefficient (Pe), using a previously elaborated spreadsheet, and, for the TGI, these values were used to determine the absorbed fraction (Fa%), both using the Excel® program.

[2] = PAMPA-GIT permeability; conditions: for Classification / Fa experimental: GIT-PAMPA; for Fa experimental: absorbed fraction
Excerpt: as §1

[3] = GIT-PAMPA, ref literature, cited from earlier work; for Fa literature: absorbed fraction
[4] = test system: L. major amasitigote 5-ASKH substrain; assay: In vitro activity against intramacrophage amastigotes, 5-ASKH; type: cell-based; conditions: Leishmania major
Protocol: (§2) Briefly, female BALB/c mice (6 to 8 weeks old) received 1 mL sterile of 3% sodium thioglycolate by intraperitoneal route (i.p.) and were euthanized after 4 days. The intraperitoneal lavage was collected from the peritoneal cavity of mice using sterile PBS and cells were counted in a hemocytometer. Peritoneal adherent cells (macrophages) were plated at a concentration of 2 x 10^5 cells per well in 24-well culture plates containing glass coverslips. Subsequently, L. major promastigotes (harvested after the third passage) were added at a concentration of 2 x 10^6 parasites per well, aiming to infect the macrophages. […] After 24 hours in an incubator at 37 °C and 5% CO2, the coverslips were washed with PBS and stained with Giemsa-May Grünwald. The number of amastigotes in 100 macrophages was determined by counting using optical microscope (100x objective). Furthermore, the cell culture supernatant was also collected for nitrite measurement using the Griess reaction, an indirect way of determining the concentration of nitric oxide in the supernatant of infected macrophages from the experimental groups. The results obtained were expressed as the mean ± S.E.M. of the number of amastigotes or nitrite concentration from duplicate cultures of representative assays, with the data analyzed by ANOVA and Dunnett hoc tests, considering a significance level of p < 0.05. In addition, the linear regression analysis from the Kc values at employed concentrations was used to determine the IC50.

[5] = test system: L. major amastigote LV39 substrain; assay: In vitro activity against intramacrophage amastigotes, LV39; type: cell-based; conditions: Leishmania major
Protocol: as §2

[6] = test system: L. major promastigote LV39 substrain; assay: In vitro activity against promastigotes, LV39; type: cell-based; conditions: Leishmania major
Protocol: (§3) L. major promastigotes LV39 (MRHO/SU/59/P) were obtained from João […] Preto Medical School- USP. L. major IOC/[…] promastigotes (MHOM/SU/1973/5-ASKH) were obtained from Leishmania collection of the Oswaldo Cruz Institute-Fiocruz. L. major promastigotes LV39 (MRHO/SU/59/P) and L. major IOC/[…] (MHOM/SU/1973/5-ASKH) were grown in a Schneider's medium (Sigma-Aldrich, St. […] The determination of the leishmanicidal activity of LASSBio-1491 against L. major promastigotes was carried out according to the methodology described by […] and colleagues (1996). […] After 48h of incubation in a Biochemical Oxygen Demand (B.O.D.) incubator, the promastigotes were counted using a hemocytometer. The results obtained were expressed as the mean ± S.E.M. of the number of promastigotes from triplicate cultures of representative assays, with the data analyzed by ANOVA and Dunnett hoc tests, considering a significance level of p < 0.05.

[7] = test system: L. major promastigote 5-ASKH substrain; assay: In vitro activity against promastigotes, 5-ASKH; type: cell-based, Leishmania major; conditions: Leishmania major
Protocol: as §3

[8] = test system: spleen cells; assay: Cytotoxicity against spleen cells (propidium iodide); conditions: Mus musculus, 24 h
Protocol: To carry out the suspension preparation of spleen cells, BALB/c mice were euthanized, and an incision was made to remove the spleen. The spleens were macerated using the end of the plungers from a 1 mL syringe in a 70 μm strainer placed in a Petri dish containing RPMI medium. […] After incubation for 4 min at room temperature, the cells were washed with RPMI medium. Subsequently, samples from three animals were pooled and the cell suspension was passed through a 40 μm strainer. Cells were counted in a Neubauer chamber and splenocytes were plated at a concentration of 5 x 10^5 cells per well in a 96-well culture plate. […] Moreover, spleen cells were also cultured just with medium (free of compounds or vehicle) or with DMSO 0.1%. […] After, the propidium iodide incorporation was performed according to the instructions of the Propidium Iodide Kit (Sigma, Copenhagen, Denmark). The splenocytes were analyzed in a FACS Canto II flow cytometer. The data files were saved using FACS Diva software and data analysis was done using Flow Jo software. […] Data obtained from experiments were expressed as the mean ± standard error of the mean (S.E.M.) of spleen died cells and statistical differences between the treated and the vehicle groups of experiments were evaluated by ANOVA and Dunnett hoc tests.

[9] = test system: peritoneal macrophages infected with L. major LV39; assay: Nitrite measurement (Griess reaction) in infected macrophages; type: cell-based, BALB/c mice; conditions: BALB/c macrophages infected with L. major LV39
Protocol: as §2, with “In addition, the linear regression analysis from the Kc values at employed concentrations was used to determine the IC50.” left out

[10] = test system: L. major LV39; assay: In vivo activity against Leishmania major LV39 substrain; set-up: species or system BALB/c mice; conditions: LASSBio-1491 10 μmol/Kg/day, glucantime 30 μmol/Kg/day x 28 days, i.p.
Protocol: Thus, 6-week-old female BALB/c mice weighing approximately 20 g were used. […] Briefly, ketamine (80mg/kg) and xylazine (8 mg/kg) were simultaneously used to anesthetize the mice by intraperitoneal injection. The promastigotes of L. major LV39 substrain in the stationary phase, harvested after the third passage (obtained from parasites frozen), were inoculated subcutaneously at a concentration of 1x 10^5 parasites in the right ear of mice. […] The size of the lesions was measured using a pachymeter. Thiopental (150 mg/kg, i.p.) was used to euthanize the mice and the quantitative limiting-dilution assay was used to determine the parasite burden of infected ears and draining lymph nodes. The results obtained from experiments were expressed as the mean ± S.E.M. with the data analyzed (size of the lesions or parasite burden) by ANOVA and Dunnett hoc tests, considering a significance level of p < 0.05.

Compound: CCn1cc(C(=O)O)c(=O)c2cc(F)c(N3CCNCC3)nc21 [Enoxacin, reference compound]
- Classification [1]: CNS -

Compound: CNC(=C[N+](=O)[O-])NCCSCc1ccc(CN(C)C)o1 [Ranitidine]
- Classification [2]: Medium (medium permeability (30–69%))
- Fa experimental [2]: 38.29%

Compound: O=C(O)c1cc(/N=N/c2ccc(S(=O)(=O)Nc3ccccn3)cc2)ccc1O [Sulfasalazine]
- Fa literature [3]: 42%
- Pe literature [3]: 0.3 10^−6 cm s^-1

Compound: N=C(N)c1ccc(OCCCCCOc2ccc(C(=N)N)cc2)cc1 [Pentamidine, reference compound]
- IC50 ([4]; Macrophage, amastigote 5-ASKH in macrophages, 24 h): 17.1 ± 5.6 µM
- Emax ([4]; amastigote 5-ASKH, read-out: Maximum effect (% ± S.E.M.)): 53.8 ± 1.1%
- IC50 ([5]; Macrophage, amastigote LV39 in macrophages, 24 h): 8.1 ± 0.9 µM
- Emax ([5]; amastigote LV39, read-out: Maximum effect (% ± S.E.M.)): 63.2 ± 2.9%
- IC50 ([6]; promastigote LV39, 48 h): 5.7 ± 0.2 µM
- Emax ([6]; promastigote LV39, read-out: Maximum effect (% ± S.E.M.)): 88.1 ± 0.1%
- IC50 ([7]; 48 h): 0.8 ± 0.1 µM
- Emax ([7]; read-out: Maximum effect (% ± S.E.M.)): 72.6 ± 2%
- IC50 [8]: > 100 µM
- NO production (nitrite) [9]: did not

Compound: Cn1c(=O)c2c(ncn2C)n(C)c1=O [Caffeine, reference compound]
- Papp ([1]; PAMPA): 0.81 ×10⁻⁶ cm/s
- Classification [1]: CNS -

Compound: meglumine antimoniate [glucantime, reference compound]
- lesion size [10]: reduced lesion size only between days 7 and 17
- parasite load in draining lymph node [10]: reduce the parasite load
- parasite load in infected ear [10]: reduce the parasite load

Compound: Nc1nc2c(ncn2COCCO)c(=O)[nH]1 [Acyclovir]
- Classification [2]: Low (low permeability (0–29%))
- Fa experimental [2]: 1.70%

Compound: CC(C)NCC(O)COc1ccc(CC(N)=O)cc1 (stereo not drawn) [Atenolol]
- Fa literature [3]: 5.2%
- Fa experimental [2]: 2.26%

Compound: CO/N=C(\C(=O)N[C@@H]1C(=O)N2C(C(=O)O)=C(CSc3nc(=O)c(=O)[nH]n3C)CS[C@H]12)c1csc(N)n1 [Ceftriaxone]
- Fa literature [3]: 1%
- Pe literature [3]: 0.1 10^−6 cm s^-1
- Classification [2]: Low (low permeability (0–29%))
- Fa experimental [2]: 1.37%

Compound: CCn1cc(C(=O)O)c(=O)c2cc(F)c(N3CCNCC3)cc21 [Norfloxacin]
- Papp ([2]; PAMPA): 0.7 ×10⁻⁶ cm/s

Compound: O=C(O)Cc1ccccc1Nc1c(Cl)cccc1Cl [Diclofenac]
- Fa literature [3]: 100%
- Pe literature [3]: 12.5 10^−6 cm s^-1
- Classification [2]: High (high intestinal permeability (70–100%))
- Fa experimental [2]: 99.28%
